Legend:
CYP2D6 = CYP2D6 (Homo sapiens, UniProt P10635); experiment: Inhibition of recombinant human CYP2D6 assessed as remaining enzyme activity using CYP2D6 blue as substrate at 10 uM after 5 mins in presence of NADP by fluorescence plate reader analysis; type: ADME; settings: recombinant human CYP2D6, probe CYP2D6 blue, read-out: Activity
[1] = Antiproliferative activity against human HOP92 cells assessed as cell growth at 10^-7 M after 48 hrs by sulforhodamine B assay; type: functional; settings: HOP-92, 48 h, read-out: Activity
[2] = Antiproliferative activity against human SF539 cells assessed as cell growth at 10^-7 M after 48 hrs by sulforhodamine B assay; type: functional; settings: SF-539, 48 h, read-out: Activity
[3] = Antiproliferative activity against human BT549 cells assessed as cell growth at 10^-6 M after 48 hrs by sulforhodamine B assay; type: functional; settings: BT-549, 48 h, read-out: Activity
SK-MEL-5 [4] = experiment: Antiproliferative activity against human SK-MEL-5 cells assessed as growth inhibition after 48 hrs by sulforhodamine B assay; type: functional; settings: SK-MEL-5, 48 h
SK-MEL-2 = experiment: Antiproliferative activity against human SK-MEL-2 cells assessed as growth inhibition after 48 hrs by sulforhodamine B assay; type: functional; settings: SK-MEL-2, 48 h; for CC50: read-out: LC50 (the source's name)
MDA-MB-435 [5] = experiment: Antiproliferative activity against human MDA-MB-435 cells assessed as growth inhibition after 48 hrs by sulforhodamine B assay; type: functional; settings: MDA-MB-435, 48 h; for CC50: read-out: LC50 (the source's name)
[6] = Antiproliferative activity against human OVCAR5 cells assessed as cell growth at 10^-7 M after 48 hrs by sulforhodamine B assay; type: functional; settings: OVCAR-5, 48 h, read-out: Activity
[7] = Antiproliferative activity against human SKOV3 cells assessed as cell growth at 10^-7 M after 48 hrs by sulforhodamine B assay; type: functional; settings: SK-OV-3, 48 h, read-out: Activity
[8] = Antiproliferative activity against human PC3 cells assessed as cell growth at 10^-7 M after 48 hrs by sulforhodamine B assay; type: functional; settings: PC-3, 48 h, read-out: Activity
MDA-MB-231 = experiment: Antiproliferative activity against human MDA-MB-231 cells assessed as cell growth at 10^-7 M after 48 hrs by sulforhodamine B assay; type: functional; settings: MDA-MB-231, 48 h, read-out: Activity
[9] = Antiproliferative activity against human SW620 cells assessed as growth inhibition after 48 hrs by sulforhodamine B assay; type: functional; settings: SW-620, 48 h; for CC50: read-out: LC50 (the source's name)
HT-29 [10] = experiment: Antiproliferative activity against human HT-29 cells assessed as growth inhibition after 48 hrs by sulforhodamine B assay; type: functional; settings: HT-29, 48 h
[11] = Antiproliferative activity against human HOP62 cells assessed as growth inhibition after 48 hrs by sulforhodamine B assay; type: functional; settings: HOP-62, 48 h
[12] = Antiproliferative activity against human RPMI8226 cells assessed as growth inhibition after 48 hrs by sulforhodamine B assay; type: functional; settings: RPMI-8226, 48 h
CYP2C9 = CYP2C9 (Homo sapiens, UniProt P11712); experiment: Inhibition of recombinant human CYP2C9 assessed as remaining enzyme activity using CYP2C9 green as substrate at 10 uM after 5 mins in presence of NADP by fluorescence plate reader analysis; type: ADME; settings: recombinant human CYP2C9, probe CYP2C9 green, read-out: Activity
CYP2C9, sequence (P11712 whole entry): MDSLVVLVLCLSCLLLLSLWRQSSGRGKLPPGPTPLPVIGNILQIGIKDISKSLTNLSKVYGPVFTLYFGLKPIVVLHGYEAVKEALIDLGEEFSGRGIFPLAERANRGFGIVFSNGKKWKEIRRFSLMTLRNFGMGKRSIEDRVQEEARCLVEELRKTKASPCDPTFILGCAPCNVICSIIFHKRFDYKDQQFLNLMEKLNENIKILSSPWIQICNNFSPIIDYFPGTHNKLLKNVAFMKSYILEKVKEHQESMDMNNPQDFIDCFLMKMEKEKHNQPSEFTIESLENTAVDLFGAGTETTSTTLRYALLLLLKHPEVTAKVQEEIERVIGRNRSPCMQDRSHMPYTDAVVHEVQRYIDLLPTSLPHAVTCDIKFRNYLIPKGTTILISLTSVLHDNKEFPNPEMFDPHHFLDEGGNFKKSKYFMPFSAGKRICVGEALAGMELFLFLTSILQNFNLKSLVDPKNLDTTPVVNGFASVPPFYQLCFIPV

[13] = Antiproliferative activity against human RPMI8226 cells assessed as cell growth at 10^-8 M after 48 hrs by sulforhodamine B assay; type: functional; settings: RPMI-8226, 48 h, read-out: Activity
HT-29 [14] = experiment: Antiproliferative activity against human HT-29 cells assessed as cell growth at 10^-8 M after 48 hrs by sulforhodamine B assay; type: functional; settings: HT-29, 48 h, read-out: Activity
[15] = Antiproliferative activity against human SF295 cells assessed as cell growth at 10^-8 M after 48 hrs by sulforhodamine B assay; type: functional; settings: SF-295, 48 h, read-out: Activity
SR = experiment: Antiproliferative activity against human SR cells assessed as cell growth at 10^-6 M after 48 hrs by sulforhodamine B assay; type: functional; settings: read-out: Activity
NCI-H322M [16] = experiment: Antiproliferative activity against human NCI-H322M cells assessed as cell growth at 10^-6 M after 48 hrs by sulforhodamine B assay; type: functional; settings: read-out: Activity
[17] = Antiproliferative activity against human MOLT4 cells assessed as cell growth at 10^-4 M after 48 hrs by sulforhodamine B assay; type: functional; settings: MOLT-4, 48 h, read-out: Activity
NCI-H322M [18] = experiment: Antiproliferative activity against human NCI-H322M cells assessed as cell growth at 10^-4 M after 48 hrs by sulforhodamine B assay; type: functional; settings: read-out: Activity
[19] = Antiproliferative activity against human SW620 cells assessed as cell growth at 10^-4 M after 48 hrs by sulforhodamine B assay; type: functional; settings: SW-620, 48 h, read-out: Activity
SK-MEL-5 [20] = experiment: Antiproliferative activity against human SK-MEL-5 cells assessed as cell growth at 10^-8 M after 48 hrs by sulforhodamine B assay; type: functional; settings: SK-MEL-5, 48 h, read-out: Activity
[21] = Antiproliferative activity against human OVCAR5 cells assessed as cell growth at 10^-8 M after 48 hrs by sulforhodamine B assay; type: functional; settings: OVCAR-5, 48 h, read-out: Activity
[22] = Antiproliferative activity against human Hs 578T cells assessed as cell growth at 10^-8 M after 48 hrs by sulforhodamine B assay; type: functional; settings: read-out: Activity
[23] = Antiproliferative activity against human UACC62 cells assessed as cell growth at 10^-6 M after 48 hrs by sulforhodamine B assay; type: functional; settings: UACC-62, 48 h, read-out: Activity
[24] = Antiproliferative activity against human SKOV3 cells assessed as cell growth at 10^-6 M after 48 hrs by sulforhodamine B assay; type: functional; settings: SK-OV-3, 48 h, read-out: Activity
A498 = experiment: Antiproliferative activity against human A498 cells assessed as cell growth at 10^-6 M after 48 hrs by sulforhodamine B assay; type: functional; settings: A498, 48 h, read-out: Activity
SN12C = experiment: Antiproliferative activity against human SN12C cells assessed as cell growth at 10^-6 M after 48 hrs by sulforhodamine B assay; type: functional; settings: read-out: Activity
MDA-MB-435 [25] = experiment: Antiproliferative activity against human MDA-MB-435 cells assessed as cell growth at 10^-4 M after 48 hrs by sulforhodamine B assay; type: functional; settings: MDA-MB-435, 48 h, read-out: Activity
[26] = Antiproliferative activity against human NCI-ADR-RES cells assessed as cell growth at 10^-4 M after 48 hrs by sulforhodamine B assay; type: functional; settings: read-out: Activity
786-0 = experiment: Antiproliferative activity against human 786-0 cells assessed as cell growth at […] after 48 hrs by sulforhodamine B assay; type: functional; settings: 786-0, 48 h, read-out: Activity
[27] = molecular target: RAF proto-oncogene serine/threonine-protein kinase (Homo sapiens, UniProt P04049); experiment: Inhibition of human CRAF at 10 uM measured after 40 mins by scintillation counting
RAF proto-oncogene serine/threonine-protein kinase, sequence (P04049 whole entry): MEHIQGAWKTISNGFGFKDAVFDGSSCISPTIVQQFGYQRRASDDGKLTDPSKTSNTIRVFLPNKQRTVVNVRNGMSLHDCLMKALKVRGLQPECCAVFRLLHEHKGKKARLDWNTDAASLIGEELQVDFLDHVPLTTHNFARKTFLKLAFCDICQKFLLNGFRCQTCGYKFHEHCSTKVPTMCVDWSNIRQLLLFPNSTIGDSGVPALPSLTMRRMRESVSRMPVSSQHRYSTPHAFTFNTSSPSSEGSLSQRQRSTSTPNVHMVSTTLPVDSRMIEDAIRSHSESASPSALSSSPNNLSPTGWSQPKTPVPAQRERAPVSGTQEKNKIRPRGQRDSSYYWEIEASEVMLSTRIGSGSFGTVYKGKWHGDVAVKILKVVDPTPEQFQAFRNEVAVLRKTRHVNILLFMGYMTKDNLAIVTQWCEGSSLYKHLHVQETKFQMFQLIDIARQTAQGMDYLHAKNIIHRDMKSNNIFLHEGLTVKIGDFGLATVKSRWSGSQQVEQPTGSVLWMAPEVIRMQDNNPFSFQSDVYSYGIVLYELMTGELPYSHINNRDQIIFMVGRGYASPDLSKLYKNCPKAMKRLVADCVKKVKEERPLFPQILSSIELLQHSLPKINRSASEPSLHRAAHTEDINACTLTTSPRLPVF

CYP2D6, sequence (P10635 whole entry): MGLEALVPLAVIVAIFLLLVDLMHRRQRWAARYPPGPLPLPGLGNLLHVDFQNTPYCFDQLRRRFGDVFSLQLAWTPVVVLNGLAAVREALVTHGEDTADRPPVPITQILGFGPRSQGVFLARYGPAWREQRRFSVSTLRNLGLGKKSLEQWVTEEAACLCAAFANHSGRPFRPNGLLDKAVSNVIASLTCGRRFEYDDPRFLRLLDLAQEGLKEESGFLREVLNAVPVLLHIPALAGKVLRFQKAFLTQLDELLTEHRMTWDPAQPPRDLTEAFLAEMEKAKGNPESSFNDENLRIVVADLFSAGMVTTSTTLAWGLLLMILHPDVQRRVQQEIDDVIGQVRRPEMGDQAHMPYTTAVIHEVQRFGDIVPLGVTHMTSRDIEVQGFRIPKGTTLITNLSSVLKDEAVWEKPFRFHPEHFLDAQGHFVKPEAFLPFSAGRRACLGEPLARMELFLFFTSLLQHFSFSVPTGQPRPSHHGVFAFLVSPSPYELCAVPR

CNC(=O)c1cc(Oc2ccc3nc(NC(=O)c4cc(C(F)(F)F)cc(C(F)(F)F)c4)sc3c2)ccn1
activity at 5 min, 10 µM (CYP2D6): 82.2% | growth at 0.1 µM [1]: 86% | growth at 0.1 µM [2]: 91% | growth at 1 µM [3]: 92% | GI50 (SK-MEL-5 [4]): 1.68 µM | TGI (SK-MEL-5 [4]): 3.63 µM | CC50 (SK-MEL-5 [4]; read-out: LC50 (the source's name)): 7.87 µM | GI50 (SK-MEL-2): 2.32 µM | TGI (SK-MEL-2): 6.7 µM | CC50 (SK-MEL-2): 81.6 µM | GI50 (MDA-MB-435 [5]): 3.28 µM | TGI (MDA-MB-435 [5]): 20.4 µM | CC50 (MDA-MB-435 [5]): > 100 µM | growth at 0.1 µM [6]: 80% | growth at 0.1 µM [7]: 91% | growth at 0.1 µM [8]: 94% | growth at 0.1 µM (MDA-MB-231): 107% | GI50 [9]: 7.56 µM | TGI [9]: 63.8 µM | CC50 [9]: > 100 µM | GI50 (HT-29 [10]): 3.86 µM | LC50 (HT-29 [10]): 96.9 µM | TGI (HT-29 [10]): 16.8 µM | GI50 [11]: 3.36 µM | LC50 [11]: 51.6 µM | TGI [11]: 10.8 µM | GI50 [12]: 2.42 µM | LC50 [12]: > 100 µM | TGI [12]: > 100 µM | activity at 5 min, 10 µM (CYP2C9): 32.7% | growth at 0.01 µM [13]: 97% | growth at 0.01 µM (HT-29 [14]): 108% | growth at 0.01 µM [15]: 93% | growth at 1 µM (SR): 100% | growth at 1 µM (NCI-H322M [16]): 52% | growth at 100 µM [17]: -7% | growth at 100 µM (NCI-H322M [18]): -42% | growth at 100 µM [19]: -10% | growth at 0.01 µM (SK-MEL-5 [20]): 95% | growth at 0.01 µM [21]: 96% | growth at 0.01 µM [22]: 94% | growth at 1 µM [23]: 84% | growth at 1 µM [24]: 90% | growth at 1 µM (A498): 66% | growth at 1 µM (SN12C): 96% | growth at 100 µM (MDA-MB-435 [25]): -15% | growth at 100 µM [26]: -38% | growth at 100 µM (786-0): -71%

CNC(=O)c1cc(Oc2ccc3nc(NC(=O)Nc4ccc(Cl)c(C(F)(F)F)c4)sc3c2)ccn1
activity at 5 min, 10 µM (CYP2D6): 98.7% | growth at 0.1 µM [1]: 80% | growth at 0.1 µM [2]: 97% | growth at 1 µM [3]: 87% | GI50 (SK-MEL-2): 5.69 µM | TGI (SK-MEL-2): 47 µM | CC50 (SK-MEL-2): > 100 µM | GI50 (MDA-MB-435 [5]): 1.9 µM | CC50 (MDA-MB-435 [5]): > 100 µM | growth at 0.1 µM [6]: 95% | growth at 0.1 µM [7]: 103% | growth at 0.1 µM [8]: 87% | growth at 0.1 µM (MDA-MB-231): 109% | GI50 [9]: 2.99 µM | TGI [9]: > 100 µM | CC50 [9]: > 100 µM | LC50 (HT-29 [10]): > 100 µM | TGI (HT-29 [10]): > 100 µM | GI50 [11]: 1.94 µM | LC50 [11]: > 100 µM | TGI [11]: 4.74 µM | GI50 [12]: 2.22 µM | LC50 [12]: > 100 µM | inhibition [27]: 94.8% | activity at 5 min, 10 µM (CYP2C9): 98.5% | growth at 0.01 µM [13]: 100% | growth at 0.01 µM (HT-29 [14]): 99% | growth at 0.01 µM [15]: 95% | growth at 1 µM (SR): 15% | growth at 1 µM (NCI-H322M [16]): 96% | growth at 100 µM [17]: 55% | growth at 100 µM (NCI-H322M [18]): 27% | growth at 100 µM [19]: 42% | growth at 0.01 µM (SK-MEL-5 [20]): 93% | growth at 0.01 µM [21]: 90% | growth at 0.01 µM [22]: 92% | growth at 1 µM [23]: 83% | growth at 1 µM [24]: 90% | growth at 1 µM (A498): 80% | growth at 1 µM (SN12C): 81% | growth at 100 µM (MDA-MB-435 [25]): 40% | growth at 100 µM [26]: 11% | growth at 100 µM (786-0): -77%

Reference: ChEMBL document CHEMBL3797052 (Eur J Med Chem, 2016)
